Source: patent publication US20260002124A1, “ENHANCING NEURONAL DIFFERENTIATION OF VENTRAL MIDBRAIN NEURAL PROGENITOR CELLS” (Novo Nordisk A/S, priority 2022, published 2026)
“And” between values parts separate entries of the source, which are not always exact repeats. Identical values can stand only once.

Tests used:
Format in all cases: cell-based, human
[1] = test system: ventral midbrain floor plate NSCs; test: Immunofluorescence staining after early administration and extended differentiation (DIV35); conditions: early administration; IF staining, extended differentiation DIV35
Experimental: (§1) Following compound administration and flow cytometry analysis performed in FIGS. 2 and 3, all groups were differentiated for a further 11 days in vitro and then were fixed in 4% paraformaldehyde and stained with DAPI to identify all cell nuclei and primary antibodies against SOX2 (1:300), Ki-67 (1:250), LMX1A (1:3000), INA (1:200), tyrosine hydroxylase (TH; 1:500) and COL1A1 (1:300) followed by fluorescently labelled secondary antibodies. Images were acquired on an Olympus IX81 microscope using CellSens software. The immunofluorescence (IF) staining confirmed the flow cytometry results of FIG. 3 with extended differentiation showing that treatment with a NOTCHi alone reduced, compared to untreated controls, the amount of NSCs identified by SOX2 (FIG. 4A-D) and proliferative cells identified by KI67 (FIG. 5B,D) while maintaining the amount of neuronal cells identified by INA (FIG. 5A,C).
(§2) Cells were fixed in 4% paraformaldehyde (Alfa Aesar) for 10 minutes at room temperature. Unspecific antibody binding was blocked by incubating cells with PADT buffer; phosphate-buffered saline (PBS) without Ca2+ and Mg2+ (Gibco) with 0.02% sodium azide solution (Ampliqon), 0.5% Triton X-100 (Sigma), and 5% Donkey serum (Jackson Labs) for 30 minutes, followed by overnight incubation with primary antibodies (see Table X) at 4° C. The cells were washed 3 times with PBS without Ca2+ and Mg2+, blocked with PADT buffer for 15 minutes, and incubated with fluorophore-conjugated secondary antibodies (see Table X) for 2 hours at room temperature, protected from light. The cells were then counterstained with DAPI (10 μg/mL) for 5 minutes at room temperature, washed 3 times with PBS without Ca2+ and Mg2+, and stored at 4° C. in PBS without Ca2+ and Mg2+ supplemented with 0.02% sodium azide. Images were captured with a Zeiss Axio Observer microscope equipped with an Axiocam 512 camera and ZEN 3.2 (Pro) software (Zeiss).

VM NPCs = test: FCM profile of VM neural cells at DIV22 after earlier NOTCHi treatment DIV16-22
Experimental: (§3) hESCs were differentiated to ventral midbrain neurons according to an established protocol (Nolbrant et al., 2017; Kirkeby et al., 2017). In brief, hESC were grown to 70-90% confluency, then disassociated with 0.5 mM EDTA. The cells were seeded at 10^4 cells/cm^2 in cell culture flasks or plates coated with human laminin-111 (1.2 μg/cm^2; BioLamina) and immediately put into contact with differentiation media. The cells were exposed to N2-based media from days in vitro (DIV) 0-8; 50% DMEM/F12+Glutamax (Gibco), 50% Neurobasal (Gibco), 1% N2 supplement CTS (Thermo Fisher Scientific), 5% GlutaMAX (Thermo Fisher Scientific), 0.2% P-S (Thermo Fisher Scientific) and supplemented with SMAD inhibitors SB431542 (10 μM; Miltenyi Biotec), Noggin (100 ng/mL; Miltenyi Biotec) for neural induction, Sonic Hedgehog C24II (SHH; 500 ng/mL; Miltenyi Biotec) for ventral fate, GSK3B inhibitor CHIR99021 (CHIR; 0.5-0.6 μM; Miltenyi Biotec) to promote caudalization. N2-based media was supplemented with fibroblast growth factor 8b (FGF8b; 100 ng/mL; Miltenyi Biotec) from DIV9-11. At DIV11, the cells were dissociated with accutase (Thermo Fisher Scientific) and seeded at 0.8×10^6 cells/[…] in a cell culture flask or plate coated with human laminin-111 (1.2 μg/cm^2) in DIV11-16 media (Neurobasal, 2% B27 supplement without vitamin A CTS (Thermo Fisher Scientific), 5% GlutaMAX, 0.2% P-S and supplemented with FGF8b (100 ng/mL), L-ascorbic acid (AA; 200 μM; Sigma), human Brain Derived Neurotrophic Factor (BDNF; 20 ng/mL; Miltenyi Biotec)) supplemented with Y-27632 (Miltenyi Biotec) at 10 μM. At day in vitro (DIV) 16, the cells were dissociated with accutase and either cryopreserved, or re-seeded in cell culture flasks/plates coated with poly-L-ornithine (0.002%) and Laminin-521 (1.5 μg/cm^2) in B27 media supplemented with BDNF (20 ng/mL), GDNF (20 ng/mL), L-ascorbic acid (200 μM), dcAMP (500 μM), DAPT (10 μM), and Y-27632 (10 μM) for extended in vitro culture allowing further differentiation and maturation of ventral midbrain neural stem cells into neurons.
(§4) Ventral midbrain dopaminergic (vmDA) progenitor cells were generated from hESCs in 2D in vitro culture as described in Example 1 and using reagents described in Table 1. At various days after initiating the differentiation the cell culture was dissociated into a single cell suspension using Accutase, counted on a NucleoCounter NC-200 and collected in N2 media (CTS™ Neurobasal™ medium supplemented with 1% CTS™ N-2 supplement). Dead cells were labelled using a LIVE/DEAD™ Fixable Near-IR Dead Cell Stain Kit. The cells were then resuspended in B27 media (CTS™ Neurobasal™ medium supplemented with 1% B-27™ supplement without vitamin A, 2 mM GSutaMAX™, 60 U/mL Penicillin-Streptomycin, 10 μM ROCK inhibitor). Cells were then fixed and permeabilized using the BD Transcription Factor Buffer Set (BD Biosciences) according to the manufacturer's instructions. The fixed cells were then stained with fluorescently conjugated antibodies, and the samples acquired on a BD LSR Fortessa or B FACSymphony (BD Biosciences). The fcs files were exported and analyzed in FlowJo 10.5.03.
(§5) To determine whether a cell was considered positive in its protein expression of a marker, gates were set as routinely done in the field at the edge of the fluorescent signal of a negative control sample. Examples of negative control samples used included unstained controls, fluorescence minus one (FMO) controls and most preferably biological negative control samples; all cells present above these threshold gates when experimental samples were run were considered positive. Antibodies: FOXA2 (1:320, Miltenyi), OTX2 (1:320, Miltenyi), SOX2 (1:40, B), LMXTA (1:2500, Novo Nordisk production), […] (1:40, AtlasAntibodies), ASCL1 (1:2500, Mitlenyi), INA (1:3000, AtlasAntibodies). […]

[2] = test system: ventral midbrain floor plate NSCs; test: Late in vitro administration of MEKi and/or NOTCHi (DIV22-29), FCM/ICC marker expression
Experimental: as §3, §4, §5

[3] = test system: ventral midbrain floor plate NSCs; test: Early in vitro administration of MEKi and/or NOTCHi (DIV16-22), flow cytometry marker expression
Experimental: as §3, §4, §5

[4] = test system: ventral midbrain floor plate NSCs; test: Immunofluorescence staining after late administration and extended differentiation (DIV40); conditions: late administration; IF staining, extended differentiation DIV40
Experimental: as §1, with “Figure,” for “FIGS. 2 and 3,”, “(1:1000),” for “(1:3000), INA (1:200),”, “results” for “results of FIG. 3”, “12A-D)” for “4A-D)”, “13B,D)” for “5B,D)”, “13A,C).” for “5A,C).”
as §2

[5] = DIV22 after NOTCHi (DAPT) DIV16-22 every 48-72 hrs, flow cytometry, replicates #1-#11
[6] = DIV22 after NOTCHi DIV16-22, Mean of #1-#11
[7] = late administration DIV22-29, FCM/ICC, % of total cells, replicates #1-#4
[8] = late administration, result in words
[9] = early treatment DIV16-22, % of total viable cells, replicates #1-#4
[10] = early treatment, result in words

`C[C@H](NC(=O)Cc1cc(F)cc(F)c1)C(=O)NC(C(=O)OC(C)(C)C)c1ccccc1` (stereo partly shown) [NOTCHi] was tested, and the “amount of NSCs identified by SOX2 compared to untreated controls” value [1] was “reduced”, the “amount of neuronal cells identified by INA” value [1] was “maintaining” and the “expression of ventral midbrain lineage marker LMX1A” value [1] was “did not prevent”. The “formation of dopamine neurons (TH)” value [1] was “did not prevent”, the “proliferative cells identified by KI67 compared to untreated controls” value [1] was “reduced” and the “proportion of stromal COL1A1 cells compared to control untreated cultures” value [1] was “dramatically reduced”. The ASCL1 expressing cells (VM NPCs; [5]) was 41.1% and 41.7% and 45.8% and 16.2% and 17.3% and 25.6% and 50.4% and 57.1% and 40.5% and 51.8% and 36.0%, the FOXA2 expressing cells (VM NPCs; [5]) was 69.7% and 76.2% and 82.7% and 78.0% and 75.5% and 35.2% and 85.4% and 98.2% and 82.1% and 94.9% and 67.6% and the INA expressing cells (VM NPCs; [5]) was 30.5% and 19.2% and 22.4% and 13.8% and 13.3% and 32.0% and 23.6% and 34.2% and 19% and 45.6% and 18.3%. The “INA+/SOX2− cells” value (VM NPCs; [5]) was 13.8% and 4.7% and 6.2% and 2.6% and 5.0% and 6.0% and 7.3% and 13.6% and 5.7% and 20.1% and 7.0%, the Ki67 expressing cells (VM NPCs; [5]) was 6.4% and 8.1% and 9.7% and 7.8% and 5.2% and 19.8% and 5.9% and 4.8% and 6.0% and 6.6% and 6.1% and the SOX2 expressing cells (VM NPCs; [5]) was 70.9% and 86.3% and 88.3% and 77.2% and 78.5% and 76.4% and 72% and 70.5% and 64.7% and 65.7% and 69.5%. The “ASCL1 expressing cells, Mean” value (VM NPCs; [6]) was 38.5%, the “FOXA2 expressing cells, Mean” value (VM NPCs; [6]) was 76.9% and the “INA expressing cells, Mean” value (VM NPCs; [6]) was 24.7%. The “INA+/SOX2− cells, Mean” value (VM NPCs; [6]) was 8.4%, the “Ki67 expressing cells, Mean” value (VM NPCs; [6]) was 7.9% and the “SOX2 expressing cells, Mean” value (VM NPCs; [6]) was 74.5%. For the same compound, the FOXA2 expressing cells [2, 7] was 81.8% and 90.2% and 68% and 92.2%, the “INA expressing cells (neuronal marker)” value [2, 7] was 35.4% and 61.5% and 74.1% and the “Ki67 expressing cells (proliferative marker)” value [2, 7] was 21.3% and 1.65% and 3.87% and 2.98%. The LMX1A expressing cells [2, 7] was 95.4% and 75.4% and 91.8%, the “SOX2 expressing cells (NSC marker)” value [2, 7] was 62.1% and 21.9% and 63.7% and 43.6% and the “expression of NSC marker SOX2 compared to controls” value [2, 8] was “downregulated”. The “expression of proliferative marker KI67 compared to controls” value [2, 8] was “downregulated”, the FOXA2 expressing cells [3, 9] was 85.3% and 72.4% and 93.2% and the “Ki67 expressing cells (proliferative marker)” value [3, 9] was 16.6% and 18.6% and 17.7%. For the same compound, the LMX1A expressing cells [3, 9] was 88.4% and 77.2% and 94.5%, the “SOX2 expressing cells (NSC marker)” value [3, 9] was 59.6% and 57.3% and 65.7% and the “expression of NSC marker SOX2 compared to controls” value [3, 10] was “downregulated”. For the same compound, the “expression of proliferative marker KI67 compared to controls” value [3, 10] was “downregulated”, the “amount of NSCs identified by SOX2 compared to untreated controls” value [4] was “reduced” and the “amount of neuronal cells identified by INA” value [4] was “maintaining”. The “expression of ventral midbrain lineage marker LMX1A” value [4] was “did not prevent”, the “formation of dopamine neurons (TH)” value [4] was “did not prevent” and the “proliferative cells identified by KI67 compared to untreated controls” value [4] was “reduced”. The “proportion of stromal COL1A1 cells compared to control untreated cultures” value [4] was “dramatically reduced”.
